Assays:
Assay type in all cases: cell-based, human
Caov-3 cell line [1] = experiment: LC3 nanoplasmonic biosensor analysis of cell lysates of Caov-3 cells
Procedure: Each cell line was cultured in a 10-cm dish under appropriate conditions before cell lysate preparation. […] […] […] Pellet cells were then washed with ice-cold PBS and incubated for 15 minutes with RIPA lysis buffer and inhibitors (Halt™ Protease and Phosphatase Inhibitor Cocktail). Thereafter, sonication and centrifugation were repeated to afford a cell lysate at a final concentration of 1.6×10^6 cells/mL.
(§1) Cleanly washed microscope coverslip slides were pretreated with 10% (v/v) APTES for 1 hour, and then drop-coated with 10 μL of a diluted immuno-AuNR solution (OD: about 0.05). A closed water-bath microfluidic detection chamber including two coverslip slides with a gasket interposed therebetween was assembled and securely fixed for sample incubation and biosensing (FIG. 1). The detection chamber was then mounted on an automated dark-field microscope stage and a syringe pump was connected to the inlet of the detection chamber. Unbound immunogold on the surface of the coverslip slides was removed using ultrapure water at a flow rate of 100 μL min^−1 for 1 hour, followed by treatment with 1 mL of a 0.2 M ethanolamine solution for 30 minutes to inactivate unreacted functional groups. Thereafter, at least 10 μL of LC3 sample and PEBP1 (2 μg mL^−1) were injected into the chamber and incubated for 4 hours and 30 minutes, respectively, and contaminants were washed with ultrapure water before biosensing.
The LSPR wavelength of each immunogold was recorded three times throughout the experiment: 1) before LC3 sample injection, 2) after LC3 sample incubation, and 3) after PEBP1 treatment. The LSPR wavelength of each AuNR stabilized on the bottom coverslip slide was rapidly recorded with an imaging microscope system (SERA, NOST, Seoul, Korea). An automated surface scanning and imaging module with a high-resolution EMCCD detector (888, iXon Life, Oxford Instrument, Belfast, Northern Ireland) was connected to large-area (130×130 μm) computer-assisted high-speed LSPR mapping through a single click. The LSPR mapping results associated with the dark-field images were visualized on a monitor with RAON computer software (NOST, Seoul, Korea), and the plasmon shift (Δλmax) of each LSPR wavelength was calculated using OriginPro 9 software.
Then, the LSPR peak shift of the Caov-3 cell line treated with bafilomycin A or not treated therewith was represented in the form of a cumulative bar graph, as shown in FIG. 13. Here, the regular and hatched boxes represent the measured first and second LSPR shifts, respectively, and error bars correspond to the standard errors measured in 60 immuno-AuNRs.

BT-474 [2] = experiment: Cell viability (EZ-Cytox); details: Baf A 50 nM or Tz 20 μg mL^−1; 6, 24 and 48 hours
Procedure: (§2) Each cell line was preincubated in 96 wells at 5×10^4 cells per well in a CO2 incubator (37° C., 5% CO2, 2-24 hours). […] Each well was treated with 10 μL of EZ-Cytox (DoGen Bio, Korea), followed by further incubation for at least 1 hour. Thereafter, UV-vis absorbance at 450 nm was recorded.

MDA-MB-231 [3] = experiment: Cell viability (EZ-Cytox); details: Baf A 50 nM or Tz 20 μg mL^−1; 6, 24 and 48 hours
Procedure: as §2

MDA-MB-231 [4] = experiment: LC3 nanoplasmonic biosensor analysis of cell lysates of MDA-MB-231 cells; details: 12 hours
BT-474 [5] = experiment: LC3 nanoplasmonic biosensor analysis of cell lysates of BT-474 cells; details: 12 hours
Procedure: (§3) Each cell line was cultured in a 10-cm dish under appropriate conditions before cell lysate preparation. […] Caov-3 cells were treated with bafilomycin A1 (1 μM) and allowed to starve for 24 to 48 hours before adding a cytosolic LC3 removal reagent. […] Pellet cells were then washed with ice-cold PBS and incubated for 15 minutes with RIPA lysis buffer and inhibitors (Halt™ Protease and Phosphatase Inhibitor Cocktail). Thereafter, sonication and centrifugation were repeated to afford a cell lysate at a final concentration of 1.6×10^6 cells/mL.
as §1, with “Thereafter, at least 10 μL of LC3 sample and PEBP1 (2 μg mL^−1) were injected into the chamber and incubated for 4 hours and 30 minutes, respectively, and contaminants were washed with ultrapure water before biosensing.” left out
The LSPR wavelength of each immunogold was recorded three times throughout the experiment: 1) before LC3 sample injection, 2) after LC3 sample incubation, and 3) after PEBP1 treatment. The LSPR wavelength of each AuNR stabilized on the bottom coverslip slide was rapidly recorded with an imaging microscope system (SERA, NOST, Seoul, Korea). […] The LSPR mapping results associated with the dark-field images were visualized on a monitor with RAON computer software (NOST, Seoul, Korea), and the plasmon shift (Δλmax) of each LSPR wavelength was calculated using OriginPro 9 software.

Caov-3 cell line [6] = experiment: LC3 Western blotting and LC3 ELISA of Caov-3 cell lysates; details: Baf A for 20 minutes and 24 hours, FIG. 14
Procedure: as §3
The cell lysate prepared in Experimental Example 2 was quantified with a BCA assay kit (Thermo Fisher Scientific), and 40 μg thereof was loaded into each well. SDS-PAGE was conducted under conditions of 70 minutes or more, 15% gel, and 90 V. Primary (LC3B antibody, Cell Signaling) and secondary (goat anti-mouse, GenDEPOT) antibodies to LC3 were diluted 1:1000 and 1:5000, respectively, and respective antibodies to actin (anti beta-actin, AbFrontier) were also diluted 1:1000 and 1:10000. Other specific conditions were the same as the general protocol for Western blotting.

[7] = before the additional treatment (read as 50 nM Baf A alone)

CO/C1=C\C(C)=C\[C@@H](C)[C@@H](O)[C@@H](C)C/C(C)=C/C=C/[C@H](OC)[C@@H]([C@@H](C)[C@@H](O)[C@H](C)[C@@]2(O)C[C@@H](O)[C@H](C)[C@@H](C(C)C)O2)OC1=O [Baf A, bafilomycin A]
LC3-II composition (Equation 1) (Caov-3 cell line [1]; Baf A for 20 minutes): 6.78% | LC3-II composition (Equation 1) (Caov-3 cell line [1]; Baf A for 24 hours): 78.8% | first LSPR peak shift (Caov-3 cell line [1]; Baf A for 24 hours): 10.2±0.25 nm | second LSPR peak shift (Caov-3 cell line [1]; Baf A for 24 hours, after PEBP1): 1.53±0.29 nm | cell viability over time (BT-474 [2]): gradual cell death | cell viability over time (MDA-MB-231 [3]): gradual cell death | change of first-step LSPR Δλmax and LC3-II ratio (MDA-MB-231 [4]; 50 nM Baf A, versus no Baf A): greater first-step LSPR Δλmax and an increased LC3-II ratio | first-step LSPR Δλmax (MDA-MB-231 [4]; [7]): 10.40±0.35 nm | change of first-step LSPR Δλmax and LC3-II ratio (BT-474 [5]; 50 nM Baf A, versus no Baf A): greater first-step LSPR Δλmax and an increased LC3-II ratio | LC3-II ratio (Equation 1) (BT-474 [5]; [7]): 68.1% | first-step LSPR Δλmax (BT-474 [5]; [7]): 7.23±0.33 nm | LC3 expression by Western blotting and ELISA (Caov-3 cell line [6]): LC3-II accumulation was induced

Reference: patent publication US20230236169A1, “NANOPLASMONIC BIOSENSOR FOR DETECTING AUTOPHAGY MARKER WITH HIGH SENSITIVITY, AND METHOD OF DETECTING AUTOPHAGY MARKER AND METHOD OF SCREENING DRUG CANDIDATE USING SAME” (KOREA UNIVERSITY RESEARCH AND BUSINESS FOUNDATION, priority 2021, published 2023)
